Assay results: ChEMBL document CHEMBL3232784, “Fluorescent analog of OSW-1 and its cellular localization” (Bioorg Med Chem Lett, 2014)
Active and inactive are the calls of the source. No cut-off for these calls is given here.

Columns and labels:
[1] = Cellular uptake in perinuclear region of cytoplasm in human HeLa cells at 1 uM after 1 hr by fluorescence microscopic analysis; format: ADME, cell-based
HeLa [2] = assay: Cytotoxicity against human HeLa cells after 24 hrs by XTT assay; format: functional, cell-based
[3] = Cytotoxicity against human NCI60 cells; format: functional, cell-based
[4] = Cellular uptake in human HeLa cell mitochondria at 1 uM by […]-based fluorescence microscopic analysis; format: ADME
HeLa [5] = assay: Cellular uptake in human HeLa cells at 0.5 uM at 4 degC after 30 mins by fluorescence microscopic analysis; format: ADME, cell-based; details: 0.5 h
[6] = Cellular uptake in perinuclear region of cytoplasm in human HeLa cells at 0.5 uM after 10 mins by fluorescence microscopic analysis; format: ADME, cell-based
[7] = Cellular uptake in human HeLa cell endoplasmic reticulum at 1 uM by […] staining-based fluorescence microscopic analysis; format: ADME
[8] = Cellular uptake in perinuclear region of cytoplasm in human HeLa cells at 0.13 to 1 uM after 1 hr by fluorescence microscopic analysis; format: ADME, cell-based
[9] = Cellular uptake in human HeLa cell golgi complex at 1 uM by BODIPY TR-ceramide-based fluorescence microscopic analysis; format: ADME
HeLa [10] = assay: Cellular uptake in human HeLa cell lysate at 1 uM after 1 hr by fluorescence spectroscopic analysis; format: ADME, cell-based
HeLa [11] = assay: Cellular uptake in human HeLa cells at 0.5 uM at 37 degC after 30 mins by fluorescence microscopic analysis; format: ADME, cell-based; details: 0.5 h

SMILES	Drug uptake [1]	inhibition (HeLa [2])	IC50 (HeLa [2]) [nM]	IC50 [3] [nM]	Drug uptake [4]	Drug uptake (HeLa [5])	Drug uptake [6]	Drug uptake [7]	Drug uptake [8]	Drug uptake [9]	Drug uptake (HeLa [10])	Drug uptake (HeLa [11])
COC(=O)CN(C)c1ccc(S(=O)(=O)N(C)C)c2nonc12	Not Active	inactive										
COc1ccc(C(=O)O[C@H]2[C@H](O[C@@H]3[C@@H](OC(C)=O)[C@H](O[C@H]4C[C@H]5[C@@H]6CC=C7C[C@@H](O)CC[C@]7(C)[C@H]6CC[C@]5(C)[C@@]4(O)[C@H](C)C(=O)CCC(C)C)OC[C@@H]3O)OC[C@@H](O)[C@@H]2O)cc1			2.6	0.78								
COc1ccc(C(=O)O[C@H]2[C@H](O[C@@H]3[C@@H](OC(C)=O)[C@H](O[C@H]4C[C@H]5[C@@H]6CC=C7C[C@@H](O)CC[C@]7(C)[C@H]6CC[C@]5(C)[C@@]4(O)[C@H](C)C(=O)CCC(C)C)OC[C@@H]3O)OC[C@@H](O)[C@@H]2OC(=O)CN(C)c2ccc(S(=O)(=O)N(C)C)c3nonc23)cc1			5		Not Active	Not Active	Active	Active	Active	Active	Active	Active
